# Assay results: patent US7230033B2, “Pest control compositions and methods for their use” (United States of America as represented by the Secretary of …, priority 2000, dated 2007)
# Key:
# [1] = system: adult Xenopsylla cheopis fleas; test: Treated-vial biocidal screening with 2% acetone solutions (Example 2), adult fleas, residual; type: in vivo; conditions: treated vials sat 5 wk; arthropods added for the final 24 h
# Method: Samples of the compounds listed below were obtained as described in Example 1, and screened for biocidal activities against nymphal Ixodes scapularis. In this example, 2% acetone solutions (wt/vol) of the compounds were applied to inner surfaces of 2-dram friction cap vials. Vials and caps were treated then allowed to dry for a minimum of 4 hours before placing 10 nymphs in each container. These same vials were used to challenge additional nymphs and adult I. scapularis ticks and adult Xenopsylla cheopis fleas through five weeks to observe any possible residual activity.
# Numbers in parentheses refer to length of treatment in terms of hours (h) or weeks (wk). Data is presented in terms of number killed/number tested. For test periods longer than 24 hours, the treated vials were allowed to sit for the stated period after drying (72 h, 4 wk, or 5 wk) and each group of arthropods was added to the vials for the final 24 h of the test period.
# I. scapularis nymphs = test: Tick bioassay, treated 2-dram vials, probit analysis; type: in vivo, Ixodes scapularis
# Source text: A control treated with acetone only was run with each series.
# For each time point, if ticks and fleas were incapable of movement, maintaining normal posture, leg coordination, ability to right themselves, or any signs of life, they were considered moribund or dead.
# Ixodes scapularis nymphs = test: Residual activity, aged treated vials, ticks; type: in vivo
# Method: Briefly, groups of 10 nymphal I. scapularis and X. cheopis fleas were used in all tests (more than a total of 5,240 nymphs and 4,860 fleas were exposed to the compounds). The inner surface of 2-dram friction cap vials were treated with the compound/acetone solution, or acetone only as a control, and left to air-dry overnight (see also, Panella et al., J. Med. Entomol., 42(3):352-358, 2005. Three to 4 holes were made in the plastic cap to allow for air exchange. Nymphal ticks and adult fleas were then placed directly into the vials using forceps. Vials containing ticks or fleas were placed in desiccators for 24 h at 21° C. and 90% RH. Morbidity and mortality was recorded at 1, 2, 4, 8, and 24 h after initial exposure.
# [2] = system: Ixodes scapularis nymphal ticks; test: Tick repellency bioassay; type: in vivo; conditions: listed as Nootkatone (Compound 7)
# [3] = Ixodes scapularis nymphal ticks, alone, or 1:1 with carvacrol (in parenthesis)
# [4] = 1 h after compound applied to applicator
# [5] = 4 h after compound applied to applicator
structure (smiles),measurement,setting,value
"C=C(C)[C@@H]1CCC2=CC(=O)C[C@@H](C)[C@]2(C)C1 [Compound 7, Nootkatone]","X. cheopis adults (5 wk), number killed/number tested",[1],5/5
same,LC90,"I. scapularis nymphs; 24 h exposure, NE = not effective at concentrations tested","0.0055 percent concentration, wt:vol"
same,Slope,"I. scapularis nymphs; 24 h exposure, probit",4.708
same,LC50 (1 h),I. scapularis nymphs; [3],0.126 % (wt:vol)
same,LC50 (24 h),I. scapularis nymphs; [3],0.0029 % (wt:vol)
same,LC90 (1 hr),I. scapularis nymphs; [3],0.725 % (wt:vol)
same,LC90 (24 h),I. scapularis nymphs; [3],0.0055 % (wt:vol)
same,LC50 (24 h),"I. scapularis nymphs; Ixodes scapularis nymphal ticks, alone, or 1:1 with carvacrol (in parenthesis), listed as compound 7",0.0029 % (wt:vol)
same,"Slope, residual activity",Ixodes scapularis nymphs; 1 week after treatment,1.682
same,"Slope, residual activity",Ixodes scapularis nymphs; 2 weeks after treatment,1.586
same,"Slope, residual activity",Ixodes scapularis nymphs; 4 weeks after treatment,1.609
same,"LC50, residual activity","Ixodes scapularis nymphs; 4 weeks after treatment, NE = not effective","0.026 percent concentration, wt:vol"
same,Slope (±SEM),[2]; 1 h,1.288 (±0.275)
same,RD50,[2]; [4],0.186 % (wt:vol)
same,RD95,[2]; [4],3.514 % (wt:vol)
same,Slope (±SEM),[2]; 4 h,1.291 (±0.277)
same,RD50,[2]; [5],0.177 % (wt:vol)
same,RD95,[2]; [5],3.319 % (wt:vol)
